According to PubChem BioAssay AID977605 (Broad Institute, 2014):
Active and inactive are the calls of the source.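 How the source made its calls: active means fitted curve reaches 40% activation below the top valid tested dose, in every test run; inconclusive means test runs disagree on the call; inactive means the rest, including effects opposite to the expected direction.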

Assay: E-selectin inducers in HUVECs, dose response, imaging, HUVEC, cherry-picked samples (AID 977605);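 further: signal is the share of imaged cells scored positive for E-selectin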
Conditions: HUVEC E-selectin immunostaining, percent of TNF-alpha response over vehicle

Row | SMILES | activation (at 19.5 µM (top of the series)) | also measured
1 | C[C@@H]1CN([C@H](C)CO)C(=O)Cc2cc(NC(=O)Nc3ccc(F)cc3)ccc2O[C@@H]1CN(C)Cc1ccncc1 |  | activation (at 21 µM (top of the series)): -0.095% (inactive)
2 | O=C(COC(=O)c1ccccc1NCCO)NNC(=O)c1cccs1 | -0.279% (inactive) | 
3 | CCC(=O)N1CC[C@@H]2[C@H](CO)Nc3ccc(C#Cc4ccc(F)cc4)cc3[C@@H]21 |  | activation (at 18 µM (top of the series)): 27.2% (inactive)
4 | CC(C)N(CCC#N)C(=O)Nc1ccc2c(c1)CCO2 | -0.194% (inactive) | 
5 | C[C@H](CO)N1C[C@H](C)[C@@H](CN(C)Cc2ccc(C(F)(F)F)cc2)Oc2ccc(NC(=O)CCC(F)(F)F)cc2C1=O | 0.441% (inactive) | 
6 | C[C@H]1CN([C@@H](C)CO)C(=O)Cc2cc(NC(=O)Nc3ccc4c(c3)OCO4)ccc2O[C@H]1CN(C)S(=O)(=O)c1cn(C)cn1 |  | activation (at 21 µM (top of the series)): -0.009% (inactive)
7 | Cc1noc(C)c1NC(=O)N(C)C[C@@H]1Oc2ccc(NC(=O)c3ccncc3)cc2C(=O)N([C@H](C)CO)C[C@@H]1C |  | activation (at 21 µM (top of the series)): 0.043% (inactive)
8 | C[C@H]1CN([C@@H](C)CO)C(=O)c2cccc(NC(=O)Nc3ccc(F)cc3)c2O[C@H]1CN(C)Cc1ccncc1 | 0.058% (inactive) | 
9 | COc1ccc(S(=O)(=O)N(C)C[C@H]2Oc3ccc(NC(=O)CCCN(C)C)cc3C(=O)N([C@@H](C)CO)C[C@H]2C)cc1 | 0.162% (inactive) | 
10 | Cc1ccc(C(=O)NNC(=O)CSc2nnc(CNc3ccc(F)cc3)n2C)cc1 | -0.046% (inactive) | 
11 | C[C@@H]1CN([C@@H](C)CO)C(=O)c2cccc(NC(=O)Nc3ccc(F)cc3)c2O[C@H]1CN(C)CC1CCCCC1 | -0.153% (inactive) | 
12 | Cc1noc(C)c1S(=O)(=O)Nc1ccc2c(c1)C(=O)N([C@H](C)CO)C[C@@H](C)[C@H](CN(C)Cc1ccncc1)O2 |  | activation (at 21 µM (top of the series)): -0.191% (inactive)
13 | C[C@H]1CN([C@@H](C)CO)C(=O)c2cccc(NS(C)(=O)=O)c2O[C@H]1CN(C)S(C)(=O)=O | 0.973% (inactive) | 
14 | COc1ccc(C(=O)N2CC(c3ccccc3)CC2=O)cc1 (stereo unspecified) | -0.124% (inactive) | 
15 | Cc1ccc(C(=O)Nc2cc(C)nn2CCC#N)cc1 | 0.178% (inactive) | 
16 | Cc1noc(C)c1NC(=O)N(C)C[C@@H]1Oc2ccc(NC(=O)Cn3cnnn3)cc2C(=O)N([C@@H](C)CO)C[C@@H]1C | -0.143% (inactive) | 
17 | C[C@@H]1CN([C@@H](C)CO)C(=O)c2cc(NS(=O)(=O)c3cccs3)ccc2O[C@@H]1CN(C)C(=O)Nc1ccc2c(c1)OCO2 | -0.086% (inactive) | 
18 | COc1ccc(NC(=O)N(C)C[C@H]2Oc3ccc(N(C)C)cc3CC(=O)N([C@H](C)CO)C[C@@H]2C)cc1 | -0.19% (inactive) | 
19 | CC(C)NC(=O)Nc1ccc2c(c1)CC(=O)N([C@H](C)CO)C[C@@H](C)[C@@H](CN(C)Cc1ccc(Cl)c(Cl)c1)O2 |  | activation (at 21 µM (top of the series)): 0.047% (inactive)
20 | CCCCNC(=O)N1CCN(c2ccccc2OCC)CC1 | 0.12% (inactive) | 
21 | COc1ccc(NS(=O)(=O)c2cccc(Cl)c2Cl)cc1S(=O)(=O)N1CCCCC1 | -0.061% (inactive) | 
22 | O=C(Nc1cc(C(F)(F)F)cc(C(F)(F)F)c1)Nc1cnn(-c2ccc([N+](=O)[O-])cc2)c1C(F)(F)F | 0.091% (inactive) | 
23 | C[C@H](CO)N1C[C@H](C)[C@H](CN(C)S(=O)(=O)c2ccccc2)Oc2c(NC(=O)Nc3ccccc3)cccc2C1=O | -0.014% (inactive) | 
24 | COc1ccc(S(=O)(=O)Nc2cccc3c2O[C@H](CN(C)C(=O)Nc2cccc4ccccc24)[C@@H](C)CN([C@H](C)CO)C3=O)cc1 | -0.185% (inactive) | 

Row | SMILES | activation (at 19.5 µM (top of the series)) | also measured
25 | COc1ccc(S(=O)(=O)Nc2ccc3c(c2)CC(=O)N([C@@H](C)CO)C[C@@H](C)[C@@H](CN(C)C(=O)NC2CCCCC2)O3)cc1 |  | activation (at 21 µM (top of the series)): -0.169% (inactive)
26 | CNC(=O)C[C@H]1CC[C@H]2[C@@H](COc3ccc(NC(=O)c4cccc(F)c4)cc3C(=O)N2C)O1 | 1.5% (inactive) | 
27 | COc1ccc(S(=O)(=O)Nc2ccc3c(c2)C(=O)N([C@H](C)CO)C[C@@H](C)[C@@H](CN(C)C(=O)Nc2cccc4ccccc24)O3)cc1 | 1.7% (inactive) | 
28 | COc1ccc(CNC(=O)Cn2ccc(N)nc2=O)cc1 | 0.076% (inactive) | 
29 | C[C@@H]1CN([C@H](C)CO)S(=O)(=O)c2ccc(-c3ccc(F)cc3)cc2O[C@@H]1CN(C)CC1CC1 | 0.158% (inactive) | 
30 | COC(=O)c1sc2nc(SCC(=O)N(C)c3ccccc3)n(N)c(=O)c2c1C | 1.12% (inactive) | 
31 | CCC(CC)NC(=O)Nc1ccc(F)c(Cl)c1 | 0.516% (inactive) | 
32 | CC(C)NC(=O)N(C)C[C@H]1Oc2ccc(NC(=O)CCC(F)(F)F)cc2CC(=O)N([C@@H](C)CO)C[C@H]1C |  | activation (at 21 µM (top of the series)): 5.5% (inactive)
33 | COc1cccc(CNC(=O)c2cc3c(cc2Cl)N2CCCCCC2=NS3(=O)=O)c1 | -0.058% (inactive) | 
34 | CC(C)(C)c1ccc(C(=O)Nc2ccc3c(c2)C(=O)NC3=O)cc1 | 0.042% (inactive) | 
35 | CC(C)c1ccc(C(=O)Nc2nnc(S(=O)(=O)N3CCCCC3)s2)cc1 | -0.055% (inactive) | 
36 | CCOC(=O)N1CCN(c2c(N3CCOCC3)c(=O)c2=O)CC1 | 7.45% (inactive) | 
37 | Cc1ccccc1CNc1ncnc2cc(Cl)ccc12 | 0.221% (inactive) | 
38 | C[C@H]1CN([C@@H](C)CO)C(=O)Cc2cc(NC(=O)Nc3ccc(C(F)(F)F)cc3)ccc2O[C@H]1CN(C)C(=O)Nc1cccc2ccccc12 |  | activation (at 21 µM (top of the series)): 0.822% (inactive)
39 | C[C@@H]1CN([C@H](C)CO)C(=O)Cc2cc(NC(=O)Nc3ccc(C(F)(F)F)cc3)ccc2O[C@H]1CN(C)Cc1ccc(Oc2ccccc2)cc1 |  | activation (at 21 µM (top of the series)): -0.245% (inactive)
40 | C[C@@H]1CN([C@H](C)CO)C(=O)c2cc(NC(=O)CCN3CCOCC3)ccc2O[C@@H]1CN(C)Cc1ccc(C(F)(F)F)cc1 | -0.028% (inactive) | 
41 | CC(C)NC(=O)Nc1ccc2c(c1)C(=O)N([C@@H](C)CO)C[C@@H](C)[C@H](CN(C)Cc1ccc(C(F)(F)F)cc1)O2 |  | activation (at 21 µM (top of the series)): 0.029% (inactive)
42 | CCCN(C)C[C@@H]1Oc2ncc(-c3ccccc3)cc2C(=O)N([C@H](C)CO)C[C@@H]1C | -0.269% (inactive) | 
43 | O=C(O)CCC(=O)NCC(=O)c1ccc(F)cc1 | -0.239% (inactive) | 
44 | C/C(=N\NC(=O)C1CC1)c1ccc(Cl)cc1 | -0.246% (inactive) | 
45 | C[C@@H]1CN([C@H](C)CO)C(=O)c2cc(NS(C)(=O)=O)ccc2O[C@H]1CN(C)C(=O)Nc1ccccc1 | -0.057% (inactive) | 
46 | Cc1cc(NC(=O)CCC(=O)N(c2ccccc2)C(C(=O)NC2CCCC2)c2ccc(F)cc2)no1 (stereo unspecified) | 0.168% (inactive) | 
47 | Cc1cc(NC(=O)c2ccccc2F)n(C(C)(C)C)n1 | 0.21% (inactive) | 
48 | CC(C)NC(=O)N(C)C[C@@H]1Oc2c(NC(=O)c3cnccn3)cccc2C(=O)N([C@@H](C)CO)C[C@@H]1C | -0.012% (inactive) | 

Row | SMILES | activation (at 19.5 µM (top of the series)) | also measured
49 | C[C@H]1CN([C@@H](C)CO)C(=O)Cc2cc(NC(=O)Nc3ccc4c(c3)OCO4)ccc2O[C@@H]1CN(C)C |  | activation (at 21 µM (top of the series)): -0.039% (inactive)
50 | CCc1ccc(C(C(=O)NC2CCCCC2)N(C(=O)c2csnn2)C2CC2)cc1 (stereo unspecified) | -0.021% (inactive) | 
51 | C[C@H]1CN([C@@H](C)CO)C(=O)c2cc(NC(=O)Nc3ccc(C(F)(F)F)cc3)ccc2O[C@@H]1CN(C)S(=O)(=O)c1ccccc1 |  | activation (at 21 µM (top of the series)): 0.012% (inactive)
52 | COc1ccc(N2C(=O)c3ccccc3C(C)(C)C2=O)cc1 | -0.152% (inactive) | 
53 | CNC[C@H]1Oc2ccc(NS(=O)(=O)c3ccc(OC)cc3)cc2CC(=O)N([C@@H](C)CO)C[C@@H]1C | -0.213% (inactive) | 
54 | C[C@H]1CN([C@@H](C)CO)C(=O)c2cccc(NC(=O)c3nc4ccccc4s3)c2O[C@@H]1CN(C)Cc1ccc(C(F)(F)F)cc1 | -0.231% (inactive) | 
55 | COc1ccc(CN(C)C[C@@H]2Oc3ccc(NC(=O)c4ccncc4)cc3C(=O)N([C@@H](C)CO)C[C@H]2C)cc1 | 19.2% (inactive) | 
56 | C[C@@H]1CN([C@H](C)CO)C(=O)c2cc(NS(=O)(=O)c3ccccc3)ccc2O[C@@H]1CN(C)C(=O)NC1CCCCC1 | -0.139% (inactive) | 
57 | C[C@H]1CN([C@@H](C)CO)C(=O)c2cc(C#Cc3cccc(F)c3)cnc2O[C@@H]1CN(C)C(=O)C1CC1 | -0.134% (inactive) | 
58 | Cc1ccc(S(=O)(=O)Nc2cc(S(=O)(=O)N3CCCCC3)ccc2N2CCOCC2)cc1 | 0.047% (inactive) | 
59 | COc1ccc(S(=O)(=O)Nc2ccc3c(c2)C(=O)N([C@@H](C)CO)C[C@H](C)[C@H](CN(C)S(=O)(=O)c2ccc(Cl)cc2)O3)cc1 |  | activation (at 21 µM (top of the series)): 0.145% (inactive)
60 | c1ccc(-c2ccccc2OCCOCCN2CCNCC2)cc1 | 0.084% (inactive) | 
61 | COc1ccc(NC(=O)N(C)C[C@H]2Oc3ccc(NC(=O)CCCCCC(=O)Nc4ccccc4N)cc3CC(=O)N([C@@H](C)CO)C[C@H]2C)cc1 |  | activation (at 18 µM (top of the series)): 0.745% (inactive)
62 | CSc1nc2c(cnn2-c2ccc(C)c(C)c2)c(=O)[nH]1 | 0.487% (inactive) | 
63 | CC(=O)NC1C(=O)N(CCN2CCOCC2)c2ccc(F)cc21 (stereo unspecified) | -0.179% (inactive) | 
64 | C/C=C/c1ccc2c(c1)O[C@H](CN(C)C(=O)CC)[C@@H](C)CN([C@H](C)CO)S2(=O)=O | 25.5% (inactive) | 
65 | C[C@@H]1CN([C@@H](C)CO)C(=O)c2cc(NC(=O)NC3CCCCC3)ccc2O[C@@H]1CN(C)Cc1ccc2c(c1)OCO2 | -0.021% (inactive) | 
66 | C[C@@H]1CN([C@H](C)CO)C(=O)c2cc(N(C)C)ccc2O[C@@H]1CN(C)C(=O)Nc1ccc2c(c1)OCO2 | 0.018% (inactive) | 
67 | C[C@@H]1CN([C@@H](C)CO)C(=O)Cc2cc(NS(=O)(=O)c3ccc(F)cc3)ccc2O[C@H]1CN(C)S(=O)(=O)c1ccc(Cl)cc1 | -0.127% (inactive) | 
68 | C[C@@H]1CN([C@H](C)CO)C(=O)c2cccc(NC(=O)C3CCOCC3)c2O[C@@H]1CN(C)Cc1ccc(Oc2ccccc2)cc1 | 0.031% (inactive) | 
69 | C[C@H]1CN([C@@H](C)CO)C(=O)c2cccc(NS(C)(=O)=O)c2O[C@@H]1CN(C)Cc1ccncc1 | -0.178% (inactive) | 
70 | C[C@@H]1CN([C@H](C)CO)C(=O)c2cccc(NS(C)(=O)=O)c2O[C@@H]1CN(C)Cc1ccncc1 | -0.083% (inactive) | 
71 | COCC(=O)N(C)C[C@@H]1Oc2cc(-c3ccc(F)cc3)ccc2S(=O)(=O)N([C@H](C)CO)C[C@H]1C | -0.159% (inactive) | 
